Columns and labels:
[1] = system: Truncated N-terminal huntington 150 Q-EGFP-Neuron 2a cells; assay: Measurement of x-Fold (polyglutamine aggregation inhibitory activity); assay type: cell-based
Experimental: In the present invention, the polyglutamine aggregation inhibitory activity (x-Fold) can be measured, for example, by the method described in the Example.
The number of the aggregated cells, and the total number of cells were counted by Array Scan V T1 (manufactured by Cellomics, Pittuburg, USA), and the ratio of the aggregated cells to the total number of cells was determined (x-Fold). […]

transglutaminase (TGase) = assay: Measurement of TG (TGase inhibitory activity, monodansyl cadaverine / N,N-dimethylcasein fluorescence, FDSS 3000); assay type: biochemical
Procedure, shortened: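 Compound (1 μL of 10 mM stock) added to 0.1 mL reaction: 100 mM HEPES-NaOH pH 7.5, 1 mM CaCl2, 20 μM monodansyl cadaverine, 0.05 mg/mL N,N-dimethylcasein, 5 μg/mL TGase. Rate of fluorescence change at 340 nm measured; DMSO control set to 100; TG50 is the concentration halving activity.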

[2] = polyglutamine aggregation, Truncated N-terminal huntington 150 Q-EGFP-Neuron 2a cells
[3] = ratio of aggregated cells to total number of cells, compound 20 μM, 20 hr, almost 1 without compound, smaller = stronger inhibition
[4] = TGase activity with compound (10 mM, 1 μL in 0.1 ml enzyme reaction solution), DMSO control taken as 100
[5] = TGase inhibitory activity measurement, unit not given
[6] = polyglutamine aggregation inhibitory activity, Table 1

TGase activity remaining (% of DMSO control = 100) (transglutaminase (TGase); [4]) | TGase activity remaining (% of DMSO control = 100) (transglutaminase (TGase); [5]) | TGase activity remaining (% of DMSO control = 100) (transglutaminase (TGase); TGase inhibitory activity value, Table 1) | SMILES | x-Fold [1, 2] | x-Fold [1, 3] | x-Fold [1, 6]
52 | 52 | – | CNCCOB(c1ccccc1)c1ccc(COCc2ccc(B(OCCNC)c3ccccc3)cc2)cc1 [Example 400, bis(4,4′-(phenyl-N-methylaminoethoxyboryl)benzyl)ether] | 1.01 | 1.01 | –
121 | 121 | – | CN(C)CCOB(c1ccc(COc2ccc(B(OCCN(C)C)c3ccc(C(F)(F)F)cc3)cc2)cc1)c1ccc(C(F)(F)F)cc1 [Example 401, (4′-trifluoromethylphenyl-N,N-dimethylaminoethoxyboryl)-4-phenyl (4′-trifluoromethylphenyl-N,N-dimethylaminoethoxyborylbenzyl)ether] | 0.95 | 0.95 | –
−12 | −12 | – | CNCCOB(c1ccc(COc2ccc(B(OCCNC)c3ccc(C(F)(F)F)cc3)cc2)cc1)c1ccc(C(F)(F)F)cc1 [Example 402, (4′-trifluoromethylphenyl-N-methylaminoethoxyboryl)-4-phenyl(4′-trifluoromethylphenyl-N-methylaminoethoxyboryl-4-benzyl)ether] | 0.57 | 0.57 | –
128 | 128 | – | COc1ccc(B(OCCN(C)C)c2ccc(COCc3ccc(B(OCCN(C)C)c4ccc(OC)cc4)cc3)cc2)cc1 [Example 414, bis(4,4′-(p-methoxyphenyl-N,N-dimethylaminoethoxyboryl)benzyl)ether] | 0.90 | 0.90 | –
91 | 91 | – | CNCCOB(c1ccc(COCc2ccc(B(OCCNC)c3ccc(F)c(F)c3)cc2)cc1)c1ccc(F)c(F)c1 [Example 417, bis(4,4′-(3,4-difluorophenyl-N-methylaminoethoxyboryl)benzyl)ether] | 1.01 | 1.01 | –
140 | 140 | 108 | NCCNCCOB(c1ccc(COCc2ccc(B(OCCNCCN)c3ccc(F)c(F)c3)cc2)cc1)c1ccc(F)c(F)c1 [Example 419, bis(4,4′-(3,4-difluorophenyl-N-aminoethylaminoethoxyboryl)benzyl)ether] | 0.90 | 0.90 | 1.02

Continued, compound first:

SMILES | TGase activity remaining (% of DMSO control = 100) (transglutaminase (TGase); [4]) | TGase activity remaining (% of DMSO control = 100) (transglutaminase (TGase); [5]) | TGase activity remaining (% of DMSO control = 100) (transglutaminase (TGase); TGase inhibitory activity value, Table 1) | x-Fold [1, 2] | x-Fold [1, 3] | x-Fold [1, 6]
OB(c1ccsc1)c1ccc2sc3ccc(B(O)c4ccsc4)cc3c2c1 [Example 406, 2,8-di(3-thiophenylhydroxyboryl)dibenzothiophene] | 61 | 61 | – | 0.85 | 0.85 | –
OB(c1ccc(COCc2ccc(B(O)c3ccc(C(F)(F)F)cc3)cc2)cc1)c1ccc(C(F)(F)F)cc1 [Example 407, bis(4,4′-(p-trifluoromethylphenyl-hydroxyboryl)benzyl)ether] | 77 | – | – | – | 1.02 | –
NCCOB(c1ccccc1)c1ccc2sc3ccc(B(OCCN)c4ccccc4)cc3c2c1 [Example 408, 2,8-di(phenylaminoethoxyboryl)dibenzothiophene] | 108 | 108 | – | 0.92 | 0.92 | –
OB(c1ccc(COCc2ccc(B(O)c3ccc(F)c(F)c3)cc2)cc1)c1ccc(F)c(F)c1 [Example 411, bis(4,4′-(3,4-difluorophenyl-hydroxyboryl)benzyl)ether] | 138 | 138 | – | 0.90 | 0.90 | –
COc1ccc(B(OC(=O)C(N)CCN)c2ccc(COCc3ccc(B(OC(=O)C(N)CCN)c4ccc(OC)cc4)cc3)cc2)cc1 (centres unmarked) [Example 415, bis(4,4′-(p-methoxyphenyl-2,4-diaminobutyric acid boryl)benzyl)ether] | 130 | 130 | – | 0.90 | 0.90 | –
NCCOB(c1ccc(COCc2ccc(B(OCCN)c3ccc(F)c(F)c3)cc2)cc1)c1ccc(F)c(F)c1 [Example 416, bis(4,4′-(3,4-difluorophenyl-aminoethoxyboryl)benzyl)ether] | 114 | 114 | – | 0.92 | 0.92 | –
CN(C)CCOB(c1ccc(COCc2ccc(B(OCCN(C)C)c3ccc(F)c(F)c3)cc2)cc1)c1ccc(F)c(F)c1 [Example 418, bis(4,4′-(3,4-difluorophenyl-N,N-dimethylaminoethoxyboryl)benzyl)ether] | 45 | 45 | – | 1.02 | 1.02 | –
COc1ccc(C(OB(c2ccccc2)c2ccc(COc3ccc(B(OC(c4ccc(OC)cc4)c4ccccn4)c4ccccc4)cc3)cc2)c2ccccn2)cc1 (centres unmarked) [Example 430, 4-(phenyl-p-methoxyphenyl-2-pyridylmethoxyboryl)-phenyl 4′-(phenyl-p-methoxyphenyl-2-pyridylmethoxyboryl)benzylether] | 106 | 106 | – | 1.03 | 1.03 | –
c1ccc(B(OC2CCCNC2)c2ccc(Oc3ccc(B(OC4CCCNC4)c4ccccc4)cc3)cc2)cc1 (centres unmarked) [Example 431, bis(4,4′-(phenyl-3-piperidyloxyboryl)phenyl)ether] | 118 | – | – | – | 1.02 | 0.57
NCC(N)C(=O)OB(c1ccccc1)c1ccc(Oc2ccc(B(OC(=O)C(N)CN)c3ccccc3)cc2)cc1 (centres unmarked) [Example 436, bis(4,4′-(phenyl-2,3-diaminopropionic acid boryl)phenyl)ether] | 104 | 104 | – | 0.85 | 0.85 | 0.73
NCCCCC(N)C(=O)OB(c1ccccc1)c1ccc(Oc2ccc(B(OC(=O)C(N)CCCCN)c3ccccc3)cc2)cc1 (centres unmarked) [Example 437, bis(4,4′-(phenyl-lysineboryl)phenyl)ether] | 119 | 119 | – | 0.85 | 0.85 | –
OB(c1ccc(Oc2ccc(B(O)c3cccc4ccccc34)cc2)cc1)c1cccc2ccccc12 [Example 439, bis(4,4′-(naphthylhydroxyboryl)phenyl)ether] | 33 | 33 | – | 0.54 | 0.54 | –
Cc1ccc(B(O)c2ccc(Oc3ccc(B(O)c4ccc(C)cc4)cc3)cc2)cc1 [Example 440, bis(4,4′-(tolylhydroxyboryl)phenyl)ether] | 63 | 63 | – | 0.69 | 0.69 | –
NCCOB(c1ccc(Oc2ccc(B(OCCN)c3cccc4ccccc34)cc2)cc1)c1cccc2ccccc12 [Example 441, bis(4,4′-(naphthyl-aminoethoxyboryl)phenyl)ether] | −1 | −1 | – | 0.58 | 0.58 | –
